Laboratory results as given in paper PMC6302903, “Protein and Chemical Determinants of BL-1249 Action and Selectivity for K2P Channels” (ACS Chemical Neuroscience, 2018).

Assays:
Assay type in all cases: cell-based
K2P9.1(TASK-3) = target: T1, K2P9.1(TASK-3) (Mus musculus, UniProt Q3LS21); test: TEVC of K2P9.1(TASK-3) in Xenopus oocytes; conditions: concentrations up to the solubility limit (∼80 μM)
T1 construct: expressed in transfected cells; host or cells: Xenopus laevis oocytes (mRNA injection, pGEMHE/pMO)
T1 sequence (Q3LS21 whole entry): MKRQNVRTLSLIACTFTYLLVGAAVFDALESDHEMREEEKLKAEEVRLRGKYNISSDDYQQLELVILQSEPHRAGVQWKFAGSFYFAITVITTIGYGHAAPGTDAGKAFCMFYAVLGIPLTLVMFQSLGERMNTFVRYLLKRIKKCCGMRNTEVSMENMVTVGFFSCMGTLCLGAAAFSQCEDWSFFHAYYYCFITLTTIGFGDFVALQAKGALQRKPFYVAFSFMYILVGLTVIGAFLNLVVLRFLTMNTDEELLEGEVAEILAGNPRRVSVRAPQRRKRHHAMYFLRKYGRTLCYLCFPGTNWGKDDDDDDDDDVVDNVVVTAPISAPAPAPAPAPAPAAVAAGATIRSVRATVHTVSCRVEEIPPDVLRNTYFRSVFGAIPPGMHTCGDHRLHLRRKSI
Experimental: BL-1249 activates K2P2.1(TREK-1)[18],[40] and K2P10.1(TREK-2),[7] but its effects on other K2P channels have not been characterized. […] In order to test if the original 10 μM assay had missed BL-1249 effects in other K2P channels, we tested concentrations of BL-1249 up to the solubility limit (∼80 μM) against the other K2P subfamily representatives. […]
Xenopus laevis oocytes were harvested in accordance with UCSF IACUC protocol AN129690 and digested in calcium-free ND-96 (96 mM NaCl, 2 mM KCl, 3.8 mM MgCl2) immediately following harvest, as previously described.[6],[10] […] Defolliculated stage V–VI oocytes were injected with 0.2–6.0 ng of mRNA in 50 nL, and currents were recorded 24–48 h after injection. mRNA was synthesized from plasmid DNA using mMessage mMachine Kit (T7 promoter, Ambion, Life Technologies) and purified using RNEasy Kit (Qiagen). […] Once stabilized basal currents were recorded, compounds were perfused at various concentrations in standard ND96 and currents were allowed to increase to stabilization before recording final current. Fold activation upon compound application is expressed as I/I0 (0 mV), derived from the current at 0 mV in the presence of compound divided by the basal current at 0 mV in standard ND96 without compound. Data were analyzed and plotted using Graphpad Prism Version 5 (GraphPad Software, San Diego California USA, www.graphpad.com). […]

K2P2.1(TREK-1) = target: T2, K2P2.1(TREK-1) (Mus musculus, UniProt P97438); test: Inside-out patch clamp of K2P2.1(TREK-1) in HEK293 cells; set-up: expressed in transfected cells; conditions: HEK293 inside-out patches, 150 mM K+[out]/150 mM Rb+[in], 1 μM
T2 sequence (P97438 1-411 isoform P97438-2): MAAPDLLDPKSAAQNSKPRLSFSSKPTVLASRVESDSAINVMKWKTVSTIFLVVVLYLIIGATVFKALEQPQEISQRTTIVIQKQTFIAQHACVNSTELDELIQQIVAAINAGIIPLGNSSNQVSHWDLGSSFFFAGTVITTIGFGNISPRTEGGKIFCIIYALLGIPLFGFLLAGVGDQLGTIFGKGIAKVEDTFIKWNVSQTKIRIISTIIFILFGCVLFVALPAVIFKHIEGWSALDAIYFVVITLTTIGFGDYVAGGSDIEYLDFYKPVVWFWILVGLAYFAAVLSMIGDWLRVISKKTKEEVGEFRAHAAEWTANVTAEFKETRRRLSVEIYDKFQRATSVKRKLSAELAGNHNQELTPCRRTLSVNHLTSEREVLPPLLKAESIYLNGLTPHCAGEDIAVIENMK
Source text: Diverse types of physical and chemical stimuli activate K2P2.1(TREK-1) by stabilizing the C-type gate and switching the channel into a “leak” mode that is characterized by a loss of outward rectification of the potassium current.[6],[8] Accordingly, we used inside-out patch clamp experiments of K2P2.1(TREK-1) expressed in HEK293 cells to test whether BL-1249 acts on the C-type gate. […] Together with previous single point concentration studies showing the insensitivity of K2P2.1(TREK-1) W275S in mammalian cells,[40] our data provide definitive evidence that BL-1249 activates K2P2.1(TREK-1) by stimulating the C-type gate. Thus, this compound fits the mechanistic paradigm shared by varied types of activators including mechanical stretch, pH, lipids, and small molecules.[6],[8]
Mouse K2P2.1 was expressed from a previously described pIRES2-EGFP vector in HEK293T cells (ATCC CRL-1573). Cells at 70% confluence were transfected (in 35 mm diameter wells) using LipofectAMINE 2000 (Invitrogen) for 6 h and plated onto coverslips coated with Matrigel (BD Biosciences).
Voltage-dependent activation of K2P2.1 was recorded on excised patches in inside-out configuration (50 kHz sampling) in the absence and presence of 1 μM BL-1249. Pipette solution contained the following: 150 mM KCl, 3.6 mM CaCl2, 10 mM HEPES (pH 7.4 with KOH). […] Data were analyzed using Clampfit 9 and Origin 7.

TREK-1/AAK M2-C = TREK-1/AAK M2-C (Mus musculus, UniProt O88454+P97438); test: TEVC of chimera TREK-1/AAK M2-C; conditions: Xenopus oocytes
Chain of TREK-1/AAK M2-C (P97438 16-167): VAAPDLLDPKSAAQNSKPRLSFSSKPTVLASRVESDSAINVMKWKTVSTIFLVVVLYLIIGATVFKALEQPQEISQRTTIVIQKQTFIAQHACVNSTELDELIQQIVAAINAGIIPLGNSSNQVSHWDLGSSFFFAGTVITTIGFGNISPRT
Chain of TREK-1/AAK M2-C (O88454 115-398): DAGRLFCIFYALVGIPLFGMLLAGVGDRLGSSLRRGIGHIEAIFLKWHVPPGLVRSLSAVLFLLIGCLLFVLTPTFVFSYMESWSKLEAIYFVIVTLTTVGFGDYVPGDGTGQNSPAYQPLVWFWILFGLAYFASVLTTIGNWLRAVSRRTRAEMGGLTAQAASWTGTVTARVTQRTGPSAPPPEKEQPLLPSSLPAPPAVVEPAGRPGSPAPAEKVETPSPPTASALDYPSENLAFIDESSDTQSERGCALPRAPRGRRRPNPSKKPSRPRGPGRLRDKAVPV

Row | Compound | activation of K2P9.1(TASK-3) (K2P9.1(TASK-3)) | effect on outward rectification (C-type gate) (K2P2.1(TREK-1)) | EC50 (TREK-1/AAK M2-C) [µM]
1 | c1ccc(-c2nnn[nH]2)c(Nc2cccc3c2CCCC3)c1 [BL-1249, (5,6,7,8-tetrahydro-naphthalen-1-yl)-[2-(1H-tetrazol-5-yl)-phenyl]-amine] | failed to find evidence for activation | clear loss of rectification | 
2 | CS(=O)(=O)Nc1ccc(C(=O)NCc2ccc(Cl)cc2Cl)cc1 [ML335] |  |  | > 100
